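Tested at 5 concentrations; 48 h exposure; 96-well plates; endpoints linearly interpolated, else capped at highest concentration. GI50 is the concentration that inhibits growth by half. The concentration for full growth arrest is given as TGI.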
Tests used:
Test in all cases: NCI tumour cell line growth inhibition, 48 h
786-0 renal = system: 786-0 renal
A498 renal = system: A498 renal
A549 NSCLC = system: A549 NSCLC
ACHN renal = system: ACHN renal
BT-549 breast = system: BT-549 breast
CAKI-1 renal = system: CAKI-1 renal
CCRF-CEM leukemia = system: CCRF-CEM leukemia
COLO 205 colon = system: COLO 205 colon
DU-145 prostate = system: DU-145 prostate
EKVX NSCLC = system: EKVX NSCLC
HCC-2998 colon = system: HCC-2998 colon
HCT-116 colon = system: HCT-116 colon
HCT-15 colon = system: HCT-15 colon
HOP-62 NSCLC = system: HOP-62 NSCLC
HS 578T breast = system: HS 578T breast
HT29 colon = system: HT29 colon
IGROV1 ovarian = system: IGROV1 ovarian
K-562 leukemia = system: K-562 leukemia
KM12 colon = system: KM12 colon
LOX IMVI melanoma = system: LOX IMVI melanoma
M14 melanoma = system: M14 melanoma
MALME-3M melanoma = system: MALME-3M melanoma
MCF7 breast = system: MCF7 breast
MDA-MB-231 breast = system: MDA-MB-231 breast
MDA-MB-435 = system: MDA-MB-435
MDA-MB-468 breast = system: MDA-MB-468 breast
MOLT-4 leukemia = system: MOLT-4 leukemia
NCI-H226 lung = system: NCI-H226 lung
NCI-H23 lung = system: NCI-H23 lung
NCI-H460 lung = system: NCI-H460 lung
OVCAR-3 ovarian = system: OVCAR-3 ovarian
OVCAR-4 ovarian = system: OVCAR-4 ovarian
OVCAR-5 ovarian = system: OVCAR-5 ovarian
OVCAR-8 ovarian = system: OVCAR-8 ovarian
PC-3 prostate = system: PC-3 prostate
RPMI-8226 leukemia = system: RPMI-8226 leukemia
RXF 393 renal = system: RXF 393 renal
SF-268 CNS = system: SF-268 CNS
SF-295 CNS = system: SF-295 CNS
SF-539 CNS = system: SF-539 CNS
SK-MEL-2 melanoma = system: SK-MEL-2 melanoma
SK-MEL-28 melanoma = system: SK-MEL-28 melanoma
SK-MEL-5 melanoma = system: SK-MEL-5 melanoma
SK-OV-3 ovarian = system: SK-OV-3 ovarian
SN12C renal = system: SN12C renal
SNB-19 CNS = system: SNB-19 CNS
SR leukemia = system: SR leukemia
SW-620 colon = system: SW-620 colon
TK-10 renal = system: TK-10 renal
UACC-257 melanoma = system: UACC-257 melanoma
UACC-62 melanoma = system: UACC-62 melanoma
UO-31 renal = system: UO-31 renal

COc1ccc2[nH]cc(-c3cc4nc(-c5cn(C)c6ncc(Br)cc56)cc(N)n4n3)c2c1
GI50 (786-0 renal): 1770 nM
TGI (786-0 renal): 3290 nM
GI50 (A498 renal): 2220 nM
TGI (A498 renal): 7010 nM
GI50 (A549 NSCLC): 1770 nM
TGI (A549 NSCLC): 5070 nM
GI50 (ACHN renal): 1460 nM
TGI (ACHN renal): 3350 nM
GI50 (BT-549 breast): 2140 nM
TGI (BT-549 breast): 4670 nM
GI50 (CAKI-1 renal): 1410 nM
TGI (CAKI-1 renal): 3540 nM
GI50 (CCRF-CEM leukemia): 2850 nM
TGI (CCRF-CEM leukemia): > 100000 nM
GI50 (COLO 205 colon): 1820 nM
TGI (COLO 205 colon): 3450 nM
GI50 (DU-145 prostate): 1780 nM
TGI (DU-145 prostate): 3640 nM
GI50 (EKVX NSCLC): 1660 nM
TGI (EKVX NSCLC): 3840 nM
GI50 (HCC-2998 colon): 1740 nM
TGI (HCC-2998 colon): 3170 nM
GI50 (HCT-116 colon): 1810 nM
TGI (HCT-116 colon): 3300 nM
GI50 (HCT-15 colon): 1350 nM
TGI (HCT-15 colon): 2810 nM
GI50 (HOP-62 NSCLC): 2070 nM
TGI (HOP-62 NSCLC): 5490 nM
GI50 (HS 578T breast): 1800 nM
TGI (HS 578T breast): 4580 nM
GI50 (HT29 colon): 1960 nM
TGI (HT29 colon): 3950 nM
GI50 (IGROV1 ovarian): 1650 nM
TGI (IGROV1 ovarian): 3430 nM
GI50 (K-562 leukemia): 2590 nM
TGI (K-562 leukemia): > 100000 nM
GI50 (KM12 colon): 1990 nM
TGI (KM12 colon): 4420 nM
GI50 (LOX IMVI melanoma): 1650 nM
TGI (LOX IMVI melanoma): 3110 nM
GI50 (M14 melanoma): 1830 nM
TGI (M14 melanoma): 3550 nM
GI50 (MALME-3M melanoma): 1680 nM
TGI (MALME-3M melanoma): 3170 nM
GI50 (MCF7 breast): 1670 nM
TGI (MCF7 breast): 3050 nM
GI50 (MDA-MB-231 breast): 1650 nM
TGI (MDA-MB-231 breast): 3360 nM
GI50 (MDA-MB-435): 1680 nM
TGI (MDA-MB-435): 3210 nM
GI50 (MDA-MB-468 breast): 1420 nM
TGI (MDA-MB-468 breast): 2860 nM
GI50 (MOLT-4 leukemia): 2240 nM
TGI (MOLT-4 leukemia): > 100000 nM
GI50 (NCI-H226 lung): 1950 nM
TGI (NCI-H226 lung): 3970 nM
GI50 (NCI-H23 lung): 1760 nM
TGI (NCI-H23 lung): 3510 nM
GI50 (NCI-H460 lung): 1800 nM
TGI (NCI-H460 lung): 3470 nM
GI50 (OVCAR-3 ovarian): 1810 nM
TGI (OVCAR-3 ovarian): 3490 nM
GI50 (OVCAR-4 ovarian): 1840 nM
TGI (OVCAR-4 ovarian): 3790 nM
GI50 (OVCAR-5 ovarian): 1590 nM
TGI (OVCAR-5 ovarian): 3440 nM
GI50 (OVCAR-8 ovarian): 1860 nM
TGI (OVCAR-8 ovarian): 3660 nM
GI50 (PC-3 prostate): 2540 nM
TGI (PC-3 prostate): 10300 nM
GI50 (RPMI-8226 leukemia): 2910 nM
TGI (RPMI-8226 leukemia): > 100000 nM
GI50 (RXF 393 renal): 1730 nM
TGI (RXF 393 renal): 3230 nM
GI50 (SF-268 CNS): 1840 nM
TGI (SF-268 CNS): 4330 nM
GI50 (SF-295 CNS): 1570 nM
TGI (SF-295 CNS): 3070 nM
GI50 (SF-539 CNS): 1640 nM
TGI (SF-539 CNS): 3030 nM
GI50 (SK-MEL-2 melanoma): 1680 nM
TGI (SK-MEL-2 melanoma): 3250 nM
GI50 (SK-MEL-28 melanoma): 1670 nM
TGI (SK-MEL-28 melanoma): 3080 nM
GI50 (SK-MEL-5 melanoma): 1780 nM
TGI (SK-MEL-5 melanoma): 3340 nM
GI50 (SK-OV-3 ovarian): 2380 nM
TGI (SK-OV-3 ovarian): 5640 nM
GI50 (SN12C renal): 1700 nM
TGI (SN12C renal): 3300 nM
GI50 (SNB-19 CNS): 2450 nM
TGI (SNB-19 CNS): 6630 nM
GI50 (SR leukemia): 2740 nM
TGI (SR leukemia): > 100000 nM
GI50 (SW-620 colon): 1750 nM
TGI (SW-620 colon): 3350 nM
GI50 (TK-10 renal): 2480 nM
TGI (TK-10 renal): 6390 nM
GI50 (UACC-257 melanoma): 1720 nM
TGI (UACC-257 melanoma): 3480 nM
GI50 (UACC-62 melanoma): 1550 nM
TGI (UACC-62 melanoma): 3040 nM
GI50 (UO-31 renal): 1730 nM
TGI (UO-31 renal): 4160 nM
